Our source for the GI50 and TGI values is PubChem BioAssay (NCI).

Each structure is given as a SMILES string.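 Cultured in 96-well plates, cells were exposed to test compound for 48 hours across five concentrations. Abbreviation: GI50, concentration required for 50% inhibition of growth. TGI: concentration producing complete growth inhibition.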

Among the test systems are 786-0 renal; NCI-H23 lung; SR leukemia; NCI-H522 lung; NCI-H460 lung; M14 melanoma; HCT-15 colon; OVCAR-3 ovarian; MDA-MB-231 breast; SK-MEL-2 melanoma.
Common to all, as to experiment: NCI anticancer screen, dose series, 48 h

For `O=C1OCC2=C1C(c1ccccc1)c1cc3c(cc1N2CCO)OCO3` (stereo not given), the GI50 is 3.54 µM with 786-0 renal; 7.88 µM in the assay with NCI-H23 lung; 3.49 µM in the assay on SR leukemia; 1.09 µM in the assay on NCI-H522 lung; 2.07 µM in the assay on NCI-H460 lung; 1.92 µM in the assay on M14 melanoma. Besides, the GI50 in the assay on HCT-15 colon was 2.96 µM; in the assay with OVCAR-3 ovarian it was 1.15 µM; in the assay on MDA-MB-231 breast, 24.8 µM; in the assay on SK-MEL-2 melanoma it was 2.72 µM. The TGI is greater than 50 µM in the assay with 786-0 renal; greater than 50 µM with NCI-H23 lung; greater than 50 µM in the assay on SR leukemia; greater than 50 µM with NCI-H522 lung; greater than 50 µM with NCI-H460 lung; 23.3 µM with M14 melanoma. The TGI with HCT-15 colon was greater than 50 µM; in the assay with OVCAR-3 ovarian, 2.6 µM; with MDA-MB-231 breast, greater than 50 µM; in the assay with SK-MEL-2 melanoma, greater than 50 µM.

Regarding `COc1ccc2c(c1)/C(=C/c1cc(OC)c(OC)c(OC)c1)C(=O)N2`, the GI50 in the assay with 786-0 renal was 0.236 µM; with NCI-H23 lung, 0.613 µM; with NCI-H522 lung, 0.25 µM; in the assay on NCI-H460 lung it was 0.269 µM; in the assay on M14 melanoma, 0.351 µM; in the assay on HCT-15 colon, 0.393 µM. Also, the GI50 was 1.51 µM with MDA-MB-231 breast and 1.18 µM with SK-MEL-2 melanoma. For the same compound, the TGI in the assay on 786-0 renal was greater than 94.3 µM; in the assay with NCI-H23 lung it was greater than 63.2 µM; in the assay with SR leukemia, 0.59 µM; in the assay on NCI-H460 lung it was greater than 100 µM; in the assay on M14 melanoma it was 11.7 µM; with HCT-15 colon, greater than 100 µM. The TGI with OVCAR-3 ovarian is 0.0463 µM; with MDA-MB-231 breast, 66.8 µM.

As for `N#CNC(N)=Nc1ccc(Cl)cc1`, the TGI with 786-0 renal, in the assay on NCI-H23 lung, in the assay on SR leukemia, in the assay on NCI-H522 lung, with NCI-H460 lung and in the assay with M14 melanoma was greater than 100 µM each time. The TGI with HCT-15 colon, with OVCAR-3 ovarian, in the assay on MDA-MB-231 breast and in the assay on SK-MEL-2 melanoma was greater than 100 µM throughout.

For `O=c1c(F)cn(Cc2ccccc2CCl)c(=O)n1Cc1ccccc1CCl`, the GI50 in the assay with 786-0 renal was 2.09 µM; with NCI-H23 lung it was 2.42 µM; with SR leukemia, 0.796 µM; with NCI-H522 lung, 1.45 µM; with NCI-H460 lung, 2.08 µM; with M14 melanoma, 1.69 µM. The GI50 with HCT-15 colon is 1.83 µM; in the assay on OVCAR-3 ovarian, 1.54 µM; in the assay with MDA-MB-231 breast, 1.93 µM; in the assay with SK-MEL-2 melanoma it was 1.54 µM. In addition, the TGI in the assay with 786-0 renal is 4.44 µM; with NCI-H23 lung it was 7.05 µM; in the assay with SR leukemia, 3.07 µM; in the assay with NCI-H522 lung, 3.01 µM; with NCI-H460 lung, 4.9 µM; with M14 melanoma it was 4.05 µM. The TGI with HCT-15 colon came to 4.45 µM; in the assay with OVCAR-3 ovarian, 3.07 µM; with MDA-MB-231 breast, 4.92 µM; with SK-MEL-2 melanoma, 3.05 µM.

As for `O=C(Nc1ccc(Cl)c(Cl)c1)NS(=O)(=O)c1cnccc1Oc1ccc(F)cc1`, the GI50 in the assay on 786-0 renal is 4.51 µM; in the assay on NCI-H23 lung, 3.37 µM; in the assay with SR leukemia, 2.55 µM; in the assay on NCI-H522 lung it was 2.8 µM; in the assay with NCI-H460 lung, 3.09 µM; in the assay on M14 melanoma it was 5.24 µM. Further, the GI50 in the assay on HCT-15 colon is 3.32 µM; with OVCAR-3 ovarian, 2.79 µM; with MDA-MB-231 breast, 5.5 µM; in the assay with SK-MEL-2 melanoma, 4.71 µM. Also, the TGI was 70.9 µM in the assay on 786-0 renal; 24.5 µM with NCI-H23 lung; 10.2 µM with SR leukemia; 10.4 µM in the assay on NCI-H522 lung; 20.1 µM in the assay with NCI-H460 lung; greater than 100 µM in the assay on M14 melanoma. In addition, the TGI in the assay with HCT-15 colon is greater than 100 µM; in the assay on OVCAR-3 ovarian, 8.11 µM; with MDA-MB-231 breast, 38.5 µM; in the assay with SK-MEL-2 melanoma, greater than 100 µM.

With `Cc1cc(N(CCC#N)CCC#N)ccc1/C=C(\NC(=O)/C=C/c1ccccc1)C(=O)NN`, the TGI with 786-0 renal, with NCI-H23 lung, with SR leukemia, with NCI-H522 lung, in the assay on NCI-H460 lung and in the assay on M14 melanoma was greater than 100 µM in each case. In addition, the TGI with HCT-15 colon, in the assay on OVCAR-3 ovarian, in the assay on MDA-MB-231 breast and in the assay with SK-MEL-2 melanoma was greater than 100 µM throughout.

Consider `C(=N\Nc1nnn(Cc2ccccc2)n1)/c1ccccc1`, for which the GI50 was 8.54 µM in the assay with 786-0 renal; 6.97 µM with NCI-H23 lung; 0.301 µM with SR leukemia; 0.56 µM in the assay with NCI-H522 lung; 2.51 µM in the assay with NCI-H460 lung; 1.31 µM with M14 melanoma. In addition, the GI50 in the assay on HCT-15 colon is 1.42 µM; in the assay with OVCAR-3 ovarian, 2.26 µM; in the assay on MDA-MB-231 breast, 7.54 µM; with SK-MEL-2 melanoma it was 1.02 µM. Further, the TGI in the assay on 786-0 renal is greater than 100 µM; in the assay on NCI-H23 lung, greater than 53.8 µM; with SR leukemia, 2.21 µM; with NCI-H460 lung, greater than 33.8 µM; in the assay on M14 melanoma, 26.5 µM; in the assay with HCT-15 colon it was greater than 100 µM. Moreover, the TGI in the assay on OVCAR-3 ovarian is 7.95 µM; with MDA-MB-231 breast, greater than 79.6 µM; in the assay on SK-MEL-2 melanoma, 6.28 µM.

As to `C=C1C(=O)O[C@H]2[C@H]1CC/C(C=Nc1c(N)cc(C(F)(F)F)cc1Br)=C\CC[C@@]1(C)O[C@@H]21`, the GI50 was 2.14 µM with 786-0 renal; 1.84 µM in the assay on NCI-H23 lung; 1.08 µM with SR leukemia; 1.37 µM in the assay on NCI-H522 lung; 1.78 µM in the assay on NCI-H460 lung; 1.71 µM with M14 melanoma. Further, the GI50 in the assay on HCT-15 colon is 1.55 µM; in the assay with OVCAR-3 ovarian it was 1.29 µM; in the assay on MDA-MB-231 breast, 1.33 µM; in the assay on SK-MEL-2 melanoma it was 1.63 µM. Besides, the TGI in the assay with 786-0 renal came to 3.91 µM; with NCI-H23 lung it was 4.41 µM; in the assay on SR leukemia, 6.73 µM; in the assay with NCI-H522 lung, 2.96 µM; with NCI-H460 lung, 3.81 µM; in the assay with M14 melanoma, 3.55 µM. The TGI in the assay with HCT-15 colon came out at 4.24 µM; in the assay with OVCAR-3 ovarian it was 2.65 µM; in the assay on MDA-MB-231 breast, 3.15 µM; with SK-MEL-2 melanoma, 3.47 µM.
